Columns and labels:
Assay in all cases: relative viability (nuclei count vs DMSO), 5 days (fraction); higher = more cells survive
HCC-827 = tested on: HCC-827
Summary of the method: (§1)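 One day after seeding in 1536-well plates, lung cancer cell lines were dosed by pin tool. Dosing was either single-drug or a fixed anchor-drug dose plus five library-drug doses (not always all listed) in √10 steps. After 5 days, nuclei were stained in one fix-and-stain step and counted on 4× images, and relative viability is the nuclei count of treated wells over that of vehicle wells, given as the median of duplicate plates.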

NCI-H647 = tested on: NCI-H647
Summary of the method: as §1

EPLC-272H = tested on: EPLC-272H
Summary of the method: as §1

NCI-H2170 = tested on: NCI-H2170
Summary of the method: as §1

201T = tested on: 201T
Summary of the method: as §1

LOU-NH91 = tested on: LOU-NH91
Summary of the method: as §1

NCI-H1437 = tested on: NCI-H1437
Summary of the method: as §1

BEN = tested on: BEN
Summary of the method: as §1

LU99A = tested on: LU99A
Summary of the method: as §1

H3255 = tested on: H3255
Summary of the method: as §1

EKVX = tested on: EKVX
Summary of the method: as §1

NCI-H2342 = tested on: NCI-H2342
Summary of the method: as §1

HCC-44 = tested on: HCC-44
Summary of the method: as §1

NCI-H1975 = tested on: NCI-H1975
Summary of the method: as §1

NCI-H650 = tested on: NCI-H650
Summary of the method: as §1

NCI-H2087 = tested on: NCI-H2087
Summary of the method: as §1

COR-L 105 = tested on: COR-L 105
Summary of the method: as §1

PC-3 [JPC-3] = tested on: PC-3 [JPC-3]
Summary of the method: as §1

SW 1573 = tested on: SW 1573
Summary of the method: as §1

NCI-H1666 = tested on: NCI-H1666
Summary of the method: as §1

NCI-H2085 = tested on: NCI-H2085
Summary of the method: as §1

## CC(=O)O[C@@]12CO[C@@H]1C[C@H](O)[C@@]1(C)C(=O)[C@H](O)C3=C(C)[C@@H](OC(=O)[C@H](O)[C@@H](NC(=O)OC(C)(C)C)c4ccccc4)C[C@@](O)([C@@H](OC(=O)c4ccccc4)[C@H]21)C3(C)C [Docetaxel] + CC(=O)c1c(C)c2cnc(Nc3ccc(N4CCNCC4)cn3)nc2n(C2CCCC2)c1=O [Palbociclib] (partner 0.5 µM)
HCC-827; first compound 0.0002 µM
  relative viability: 0.508
HCC-827; first compound 0.000632 µM
  relative viability: 0.446
HCC-827; first compound 0.002 µM
  relative viability: 0.375
HCC-827; first compound 0.006325 µM
  relative viability: 0.213
HCC-827; first compound 0.02 µM
  relative viability: 0.197
NCI-H647; first compound 0.0002 µM
  relative viability: 0.3
NCI-H647; first compound 0.000632 µM
  relative viability: 0.387
NCI-H647; first compound 0.002 µM
  relative viability: 0.11
NCI-H647; first compound 0.006325 µM
  relative viability: 0.0808
NCI-H647; first compound 0.02 µM
  relative viability: 0.062
EPLC-272H; first compound 0.0002 µM
  relative viability: 0.374
EPLC-272H; first compound 0.000632 µM
  relative viability: 0.341
EPLC-272H; first compound 0.002 µM
  relative viability: 0.236
EPLC-272H; first compound 0.006325 µM
  relative viability: 0.204
EPLC-272H; first compound 0.02 µM
  relative viability: 0.148
NCI-H2170; first compound 0.0002 µM
  relative viability: 0.409
NCI-H2170; first compound 0.000632 µM
  relative viability: 0.383
NCI-H2170; first compound 0.002 µM
  relative viability: 0.306
NCI-H2170; first compound 0.006325 µM
  relative viability: 0.188
NCI-H2170; first compound 0.02 µM
  relative viability: 0.171
201T; first compound 0.0002 µM
  relative viability: 0.357
201T; first compound 0.000632 µM
  relative viability: 0.369
201T; first compound 0.002 µM
  relative viability: 0.367
201T; first compound 0.006325 µM
  relative viability: 0.388
201T; first compound 0.02 µM
  relative viability: 0.335
LOU-NH91; first compound 0.0002 µM
  relative viability: 0.553
LOU-NH91; first compound 0.000632 µM
  relative viability: 0.534
LOU-NH91; first compound 0.002 µM
  relative viability: 0.491
LOU-NH91; first compound 0.006325 µM
  relative viability: 0.43
LOU-NH91; first compound 0.02 µM
  relative viability: 0.324
NCI-H1437; first compound 0.0002 µM
  relative viability: 0.261
NCI-H1437; first compound 0.000632 µM
  relative viability: 0.33
NCI-H1437; first compound 0.002 µM
  relative viability: 0.297
NCI-H1437; first compound 0.02 µM
  relative viability: 0.156
BEN; first compound 0.0002 µM
  relative viability: 0.457
BEN; first compound 0.000632 µM
  relative viability: 0.478
BEN; first compound 0.002 µM
  relative viability: 0.39
BEN; first compound 0.006325 µM
  relative viability: 0.376
BEN; first compound 0.02 µM
  relative viability: 0.343
LU99A; first compound 0.0002 µM
  relative viability: 0.367
LU99A; first compound 0.000632 µM
  relative viability: 0.36
LU99A; first compound 0.002 µM
  relative viability: 0.265
LU99A; first compound 0.006325 µM
  relative viability: 0.245
LU99A; first compound 0.02 µM
  relative viability: 0.159
H3255; first compound 0.0002 µM
  relative viability: 0.323
H3255; first compound 0.000632 µM
  relative viability: 0.304
H3255; first compound 0.002 µM
  relative viability: 0.296
H3255; first compound 0.006325 µM
  relative viability: 0.308
H3255; first compound 0.02 µM
  relative viability: 0.282
EKVX; first compound 0.0002 µM
  relative viability: 0.337
EKVX; first compound 0.000632 µM
  relative viability: 0.36
EKVX; first compound 0.002 µM
  relative viability: 0.245
EKVX; first compound 0.006325 µM
  relative viability: 0.242
EKVX; first compound 0.02 µM
  relative viability: 0.149
NCI-H2342; first compound 0.0002 µM
  relative viability: 0.683
NCI-H2342; first compound 0.000632 µM
  relative viability: 0.558
NCI-H2342; first compound 0.002 µM
  relative viability: 0.486
NCI-H2342; first compound 0.006325 µM
  relative viability: 0.388
NCI-H2342; first compound 0.02 µM
  relative viability: 0.394
HCC-44; first compound 0.0002 µM
  relative viability: 0.904
HCC-44; first compound 0.000632 µM
  relative viability: 1.01
HCC-44; first compound 0.002 µM
  relative viability: 0.968
HCC-44; first compound 0.006325 µM
  relative viability: 0.691
HCC-44; first compound 0.02 µM
  relative viability: 0.632
NCI-H1975; first compound 0.0002 µM
  relative viability: 0.568
NCI-H1975; first compound 0.000632 µM
  relative viability: 0.354
NCI-H1975; first compound 0.002 µM
  relative viability: 0.224
NCI-H1975; first compound 0.006325 µM
  relative viability: 0.215
NCI-H1975; first compound 0.02 µM
  relative viability: 0.107
NCI-H650; first compound 0.0002 µM
  relative viability: 0.34
NCI-H650; first compound 0.000632 µM
  relative viability: 0.305
NCI-H650; first compound 0.002 µM
  relative viability: 0.222
NCI-H650; first compound 0.006325 µM
  relative viability: 0.211
NCI-H650; first compound 0.02 µM
  relative viability: 0.193
NCI-H2087; first compound 0.0002 µM
  relative viability: 0.218
NCI-H2087; first compound 0.000632 µM
  relative viability: 0.179
NCI-H2087; first compound 0.002 µM
  relative viability: 0.135
NCI-H2087; first compound 0.006325 µM
  relative viability: 0.144
NCI-H2087; first compound 0.02 µM
  relative viability: 0.102
COR-L 105; first compound 0.0002 µM
  relative viability: 0.393
COR-L 105; first compound 0.000632 µM
  relative viability: 0.403
COR-L 105; first compound 0.002 µM
  relative viability: 0.368
COR-L 105; first compound 0.006325 µM
  relative viability: 0.353
COR-L 105; first compound 0.02 µM
  relative viability: 0.338
PC-3 [JPC-3]; first compound 0.0002 µM
  relative viability: 0.55
PC-3 [JPC-3]; first compound 0.000632 µM
  relative viability: 0.559
PC-3 [JPC-3]; first compound 0.002 µM
  relative viability: 0.573
PC-3 [JPC-3]; first compound 0.006325 µM
  relative viability: 0.469
PC-3 [JPC-3]; first compound 0.02 µM
  relative viability: 0.422
SW 1573; first compound 0.0002 µM
  relative viability: 0.316
SW 1573; first compound 0.000632 µM
  relative viability: 0.23
SW 1573; first compound 0.002 µM
  relative viability: 0.155
SW 1573; first compound 0.006325 µM
  relative viability: 0.196
SW 1573; first compound 0.02 µM
  relative viability: 0.0993
NCI-H1666; first compound 0.0002 µM
  relative viability: 0.628
NCI-H1666; first compound 0.000632 µM
  relative viability: 0.666
NCI-H1666; first compound 0.002 µM
  relative viability: 0.795
NCI-H1666; first compound 0.006325 µM
  relative viability: 0.712
NCI-H1666; first compound 0.02 µM
  relative viability: 0.581
NCI-H2085; first compound 0.0002 µM
  relative viability: 0.463
NCI-H2085; first compound 0.000632 µM
  relative viability: 0.551
NCI-H2085; first compound 0.002 µM
  relative viability: 0.539
NCI-H2085; first compound 0.006325 µM
  relative viability: 0.48
NCI-H2085; first compound 0.02 µM
  relative viability: 0.42
